Assay results published in ChEMBL document CHEMBL2385000, “Design, synthesis and biological evaluation of indeno[1,2-d]thiazole derivatives as potent histone deacetylase inhibitors” (Bioorg Med Chem Lett, 2013).

Columns and labels:
[1] = target: T1, Histone deacetylase (Homo sapiens) (UniProt Q13547+O15379+Q9UBN7+Q92769+Q9UQL6+Q8WUI4+Q9BY41+Q96DB2+P56524+Q9UKV0+Q969S8); conditions: HeLa, at 10 µM
Description: Inhibition of HDAC in human HeLa cells using Fluor de Lys as substrate at 10 uM by fluorescence assay

[2] = target: T1, Histone deacetylase (Homo sapiens); conditions: HeLa, at 1 µM
Description: Inhibition of HDAC in human HeLa cells using Fluor de Lys as substrate at 1 uM by fluorescence assay

[3] = test system: MCF7; experiment: Cytotoxicity against human MCF7 cells after 48 hrs by Sulforhodamine B assay; type: functional
[4] = test system: HCT-116; experiment: Cytotoxicity against human HCT116 cells after 48 hrs by Sulforhodamine B assay; type: functional
[5] = target: Histone deacetylase; experiment: Inhibition of HDAC in human HeLa cells using Fluor de Lys as substrate by fluorescence assay; type: cell-based

Row | SMILES | inhibition [1] | inhibition [2] | IC50 [5] | GI50 ([3]; Homo sapiens, MCF7, 48 h) | GI50 ([4]; Homo sapiens, HCT-116, 48 h) | GI50 [3] | GI50 [4]
1 | COc1ccc(Nc2nc3c(s2)Cc2cc(/C=C/C(=O)NO)ccc2-3)cc1 | 95.5% | 45.1% | – | – | – | – | –
2 | O=C(CCCCCCC(=O)Nc1ccccc1)NO [VORINOSTAT] | – | – | – | – | – | 0.689 µM | 0.878 µM
3 | O=C(/C=C/c1ccc2c(c1)Cc1sc(Nc3ccccc3)nc1-2)NO | 95.3% | 20.7% | – | – | – | – | –
4 | O=C(/C=C/c1ccc2c(c1)Cc1sc(Nc3ccc(F)cc3F)nc1-2)NO | 92.3% | 21.6% | – | – | – | – | –
5 | O=C(/C=C/c1ccc2c(c1)Cc1sc(Nc3cccc(C(F)(F)F)c3)nc1-2)NO | 86.3% | 22.9% | – | – | – | – | –
6 | O=C(/C=C/c1ccc2c(c1)Cc1sc(NC3CCCCC3)nc1-2)NO | 93.6% | 24.8% | – | – | – | – | –
7 | Cc1cc(C)c(Nc2nc3c(s2)Cc2cc(/C=C/C(=O)NO)ccc2-3)c(C)c1 | 90% | 28.1% | – | – | – | – | –
8 | CNc1nc2c(s1)Cc1cc(/C=C/C(=O)NO)ccc1-2 | – | – | – | 1.39 µM | 1.86 µM | – | –
9 | O=C(/C=C/c1ccc2c(c1)Cc1sc(Nc3cccnc3)nc1-2)NO | 96.5% | 62% | 0.298 µM | 1.58 µM | 2.43 µM | – | –
10 | O=C(/C=C/c1ccc2c(c1)Cc1sc(Nc3ccc(Cl)cc3)nc1-2)NO | 95.3% | 35.8% | – | – | – | – | –
11 | O=C(/C=C/c1ccc2c(c1)Cc1sc(Nc3ccncc3)nc1-2)NO | 93.9% | 10.2% | – | – | – | – | –
12 | O=C(/C=C/c1ccc2c(c1)Cc1sc(Nc3ccccn3)nc1-2)NO | 77.7% | 25.5% | – | – | – | – | –

Now from value to compound, other results behind:

Row | inhibition [1] | inhibition [2] | IC50 [5] | SMILES | GI50 ([3]; Homo sapiens, MCF7, 48 h) | GI50 ([4]; Homo sapiens, HCT-116, 48 h) | GI50 [3] | GI50 [4]
13 | 97% | 71.7% | 0.157 µM | CN(C)c1nc2c(s1)Cc1cc(/C=C/C(=O)NO)ccc1-2 | 1.26 µM | 1.61 µM | – | –
14 | 97.2% | 66.9% | 0.164 µM | O=C(/C=C/c1ccc2c(c1)Cc1sc(NCCN3CCOCC3)nc1-2)NO | 2.06 µM | 1.32 µM | – | –
15 | 97.5% | 61.3% | 0.214 µM | CC(C)Nc1nc2c(s1)Cc1cc(/C=C/C(=O)NO)ccc1-2 | 1.21 µM | 2.1 µM | – | –
16 | 95.3% | 39.8% | – | CC(C)(C)Nc1nc2c(s1)Cc1cc(/C=C/C(=O)NO)ccc1-2 | – | – | – | –
17 | 86.2% | 10.7% | – | COc1ccc(CNc2nc3c(s2)Cc2cc(/C=C/C(=O)NO)ccc2-3)cc1 | – | – | – | –
18 | 93.3% | 52.7% | – | CCCNc1nc2c(s1)Cc1cc(/C=C/C(=O)NO)ccc1-2 | – | – | – | –
19 | 95.9% | 7.71% | – | Cc1ccc(Nc2nc3c(s2)Cc2cc(/C=C/C(=O)NO)ccc2-3)cc1 | – | – | – | –
20 | 97.4% | 71.6% | 0.14 µM | COCCNc1nc2c(s1)Cc1cc(/C=C/C(=O)NO)ccc1-2 | 0.869 µM | 0.535 µM | – | –
